What was measured:
CD34^+CD38^− cells = test: Expansion of CD34+CD38- cells using human cord blood-derived CD34+ cells (Assay Example 1); assay type: cell-based; settings: for Comparison with TPO: 3 μg/mL compound vs TPO 10 ng/mL, CD34^+CD38^− cells; for Expansion efficiency (CD34^+CD38^− cells): 3 μg/mL compound, 100 ng/mL SCF, 7 days, based on the number of CD34^+CD38^− cells in the absence of compound
Protocol: (§1) Human cord blood-derived CD34^+ cells were purchased from Lonza and plated on a 24-well plate (Corning) (10000 cells/1 mL/well). As the culture medium, StemSpan SFEM (StemCell Technologies) containing 100 ng/mL SCF (Wako Pure Chemical Industries) was used, and one of Compounds No. 1 to 72 dissolved in dimethyl sulfoxide was added in an amount of 0.1% (v/v) to a final concentration of 1 or 3 μg/mL. As a positive control, TPO (PeproTech) was used at a final concentration of 10 ng/mL.
(§2) After the cells were incubated in liquid culture at 37° C. for 7 days in a CO2 incubator (5% CO2), the number of viable cells was counted by trypan blue assay. The number of CD34^+CD38^− cells was calculated as follows. After the incubation, the cells in the liquid culture was stained with a CD34 antibody (APC, Becton, Dickinson and Company) and a CD38 antibody (PE, Becton, Dickinson and Company), then washed with PBS(−) containing 2% (v/v) FBS and stained with propidium iodide (Sigma-Aldrich Japan) added to a final concentration of 5 μg/mL. The stained cells were analyzed with a BD FACSCANTO™ II flow cytometer (Becton, Dickinson and Company) to determined the proportions of CD34^+ cells and CD34^+CD38^− cells, which was multiplied by the number of viable cells to calculate the numbers of CD34^+ cells and CD34^+CD38^− cells.
(§3) The expansion efficiencies in the presence of 1 or 3 μg/mL of compounds based on the number of CD34^+ cells in the absence of them are shown in Tables 3-1 and 3-2 on a scale of A for expansion efficiencies of 6 or greater, B for expansion efficiencies of at least 4 and less than 6, and C for expansion efficiencies of at least 2 and less than 4. The expansion efficiencies in the presence of 1 or 3 μg/mL of compounds based on the number of CD34^+CD38^− cells in the absence of them are shown in Tables 4-1 and 4-2 on a scale of A for expansion efficiencies of 10 or greater, B for expansion efficiencies of at least 5 and less than 10, and C for expansion efficiencies of at least 3 and less than 5. Further, in Table 3, the compounds with an expansion efficiency twice or more greater than that of TPO are marked with O.

CD34^+ cells = test: Expansion of CD34+ cells using human cord blood-derived CD34+ cells (Assay Example 1); assay type: cell-based; settings: 3 μg/mL compound; 100 ng/mL SCF, 7 days; based on the number of CD34^+ cells in the absence of compound
Protocol: as §1, §2, §3

SRC = test: Transplantation of cell culture into immunodeficient (NOD/SCID) mice, SRC assay (Assay Example 4); assay type: in vivo; settings: CD34^+ cells cultured 1 week with 3 μg/mL Compound No. 60, SCF and Flt-3, 8 weeks after transplantation, vs uncultured CD34^+ cells, FIG. 2
Protocol: Human cord blood-derived CD34^+ cells were cultured for 1 week in StemSpan SFEM (StemCell Technologies) containing SCF (Peprotech) at a final concentration of 100 ng/mL and Flt-3 (Wako Pure Chemical Industries) at a final concentration of 100 ng/mL in the presence of TPO (Peprotech) at a final concentration of 20 ng/mL or Compound No. 60 at a final concentration of 3 μg/mL in the same manner as in Assay Example 1. The cell culture were transplanted into at least five 7- to 8-week-old NOD/SCID mice by tail vein injection at 4×10^4 cells/mouse in terms of the initial number of CD34^+ cells after a sublethal dose of irradiation (2.5 Gy). Eight weeks after the transplantation, the mice were killed, and the bone marrow cells were collected from both thighbones. Subsequently, the bone marrow cells were stained with a human CD45 antibody (APC, Becton, Dickinson and Company), then washed with PBS(−) containing 2% (v/v) FBS and stained with propidium iodide (Sigma-Aldrich Japan) added to a final concentration of 5 μg/mL. The stained cells were analyzed with a flow cytometry to determined the proportion of human CD45^+ cells in the bone marrow cells. […]

HPP-CFC colonies = test: Expansion of HPP-CFU, blood cell colony forming assay (Assay Example 3); assay type: cell-based, human; settings: cells cultured with 3 μg/mL compound, 500 cells/dish, 12 days; None = 6
Protocol: The effects of Compounds No. 60 and No. 61 of the present invention on hematopoietic progenitor cells were measured by blood cell colony forming assay. The liquid cell cultures obtained in the presence of Compounds No. 60 or No. 61 at a final concentration of 3 μg/mL in the same manner as in Assay Example 1 were poured into 3.5-cm Petri dishes with MethoCult GF H4435 culture medium (StemCell Technologies) at 500 cells/dish and incubated in a CO2 incubator (5% CO2, 37° C.) for 12 days. The number of HPP-CFC colonies in each plate was counted under a microscope routinely. The assay was carried out at least in triplicate, and the numbers of HPP-CFC colonies were averaged.

Row | Compound | Comparison with TPO (CD34^+CD38^− cells) | Expansion efficiency (CD34^+CD38^− cells) (CD34^+CD38^− cells) | Expansion efficiency (CD34^+ cells) (CD34^+ cells) | SRC expanding effect (proportion of human CD45^+ cells in bone marrow) (SRC) | Number of HPP-CFC colonies (HPP-CFC colonies)
1 | CC(=NNC(=O)c1ccc(C(=O)NCc2ccc(C(=O)NCCOCCO)cc2)s1)c1csc(-c2ccc(C(C)(C)C)cc2)c1O [Compound No. 60] | ∘ | A (A for expansion efficiencies of 10 or greater) | B (B for expansion efficiencies of at least 4 and less than 6) | excellent SRC expanding effect | 25
2 | CC(=NNC(=O)c1ccc(C(=O)NCc2ccc(C(=O)NCCOCCO)cc2)s1)c1csc(-c2ccc(Br)cc2)c1O [compound 61] | ∘ | A (A for expansion efficiencies of 10 or greater) | A (A for expansion efficiencies of 6 or greater) |  | 14
3 | CC(=NNC(=O)c1ccc(C(=O)NCc2ccc(CC(N)=O)cc2)s1)c1csc(-c2ccc(OC(F)(F)F)cc2)c1O [compound 71] |  | A (A for expansion efficiencies of 10 or greater) | A (A for expansion efficiencies of 6 or greater) |  | 
4 | COc1ccc(-c2scc(C(C)=NNC(=O)c3ccc(C(=O)NCc4ccc(CC(N)=O)cc4)s3)c2O)cc1 [compound 72] |  | B (B for expansion efficiencies of at least 5 and less than 10) | B (B for expansion efficiencies of at least 4 and less than 6) |  | 

Reference: patent publication US9328085B2, “Heterocyclic compounds and expansion agents for hematopoietic stem cells” (NISSAN CHEMICAL INDUSTRIES, LTD., priority 2009, dated 2016)
